Structures can show the parent of a compound that is named as a salt. Where two headings read alike, the source gives them in different places.
Key:
[1] = target: T1, SARS-CoV-2 PLpro (nsp3 1564–1878) (Severe acute respiratory syndrome coronavirus 2, UniProt P0DTD1); assay: biochemical; parameters: FRET-quenched peptide (Pro3) cleavage by PLpro, 10 min pre-incubation, slope over 20 min, normalised to no-compound control; conditions: high concentration screen, read-out: % of control remaining
[2] = target: T1, SARS-CoV-2 PLpro (nsp3 1564–1878); assay: biochemical; parameters: FRET-quenched peptide (Pro3) cleavage by PLpro, 10 min pre-incubation, slope over 20 min, normalised to no-compound control; conditions: low concentration screen, read-out: % of control remaining

## Oc1cc2c(cc1O)CN(C(=S)NCCc1ccc(Cl)cc1)CCC2 [Capsazepine]
[1]; Well no.=631
  remaining activity at 3.75 µM: 99.5%
[2]; Well no.=631
  remaining activity at 1.25 µM: 98.8%

## C#CCn1c(=O)c2c(ncn2C)n(C)c1=O [3,7-Dimethyl-I-propargylxanthine]
[1]; Well no.=498
  remaining activity at 3.75 µM: 97.4%
[2]; Well no.=498
  remaining activity at 1.25 µM: 99.2%

## CN1CCN(c2cc(-c3ccccc3)nc(N)n2)CC1 [VUF10460]
[1]; Well no.=7041
  remaining activity at 3.75 µM: 105%
[2]; Well no.=7041
  remaining activity at 1.25 µM: 105%

## OC[C@H]1O[C@@H](n2cnc3c(N[C@@H]4CCOC4)ncnc32)[C@H](O)[C@@H]1O [Tecadenoson]
[1]; Well no.=7966
  remaining activity at 3.75 µM: 96.1%
[1]; Well no.=8315
  remaining activity at 3.75 µM: 94.4%
[2]; Well no.=7966
  remaining activity at 1.25 µM: 96.9%
[2]; Well no.=8315
  remaining activity at 1.25 µM: 94.2%

## O=C(O)/C=C/C(=O)O [3-Aminopropionitrile fumarate]
[1]; Well no.=251
  remaining activity at 3.75 µM: 93.7%
[2]; Well no.=251
  remaining activity at 1.25 µM: 92.7%

## C=C[C@H]1CN2CC[C@H]1C[C@@H]2[C@@H](O)c1ccnc2ccccc12 [Cinchonine]
[1]; Well no.=7012
  remaining activity at 3.75 µM: 93.6%
[2]; Well no.=7012
  remaining activity at 1.25 µM: 97.3%

## CCCN(CCC)CCc1ccc(O)c(O)c1 [Dipropyldopamine hydrobromide]
[1]; Well no.=684
  remaining activity at 3.75 µM: 98.3%
[2]; Well no.=684
  remaining activity at 1.25 µM: 98.3%

## CCOC(=O)c1cnn(-c2ccccc2)c1NC(=O)c1cc2nc(-c3ccco3)cc(C(F)(F)Cl)n2n1 [Mycro 3]
[1]; Well no.=7158
  remaining activity at 3.75 µM: 94.4%
[2]; Well no.=7158
  remaining activity at 1.25 µM: 96%

## C[C@@H]1O[C@@H](O[C@H]2C[C@@H](O)[C@]3(CO)[C@H]4[C@H](O)C[C@]5(C)[C@@H](C6=CC(=O)OC6)CC[C@]5(O)[C@@H]4CC[C@]3(O)C2)[C@H](O)[C@H](O)[C@H]1O [Ouabain]
[1]; Well no.=1088
  remaining activity at 3.75 µM: 94.6%
[2]; Well no.=1088
  remaining activity at 1.25 µM: 93.1%

## CCC1(C2=NCCN2)Cc2ccccc2O1 (centres unmarked) [Efaroxan hydrochloride]
[1]; Well no.=603
  remaining activity at 3.75 µM: 96.2%
[2]; Well no.=603
  remaining activity at 1.25 µM: 97.3%

## Nc1nc(N)c2nc(-c3cccc(O)c3)c(-c3cccc(O)c3)nc2n1 [TG100-115]
[1]; Well no.=4846
  remaining activity at 3.75 µM: 99.1%
[2]; Well no.=4846
  remaining activity at 1.25 µM: 99.1%

## NC(N)=NC(N)=Nc1cccc(Cl)c1 [1-(m-Chlorophenyl)-biguanide hydrochloride]
[1]; Well no.=487
  remaining activity at 3.75 µM: 103%
[2]; Well no.=487
  remaining activity at 1.25 µM: 106%

## COC(=O)C1=CO[C@@H](O[C@@H]2O[C@H](CO)[C@@H](O)[C@H](O)[C@H]2O)[C@@H]2C(CO)=CC[C@H]12 [Geniposide]
[1]; Well no.=5206
  remaining activity at 3.75 µM: 97.9%
[2]; Well no.=5206
  remaining activity at 1.25 µM: 102%

## CCN(CC)CCNC(=O)c1c(C)[nH]c(/C=C2\C(=O)Nc3ccc(Cl)cc32)c1C [SU11652]
[1]; Well no.=2565
  remaining activity at 3.75 µM: 93.7%
[2]; Well no.=2565
  remaining activity at 1.25 µM: 93.6%

## OCCC#Cc1nc(-c2ccc(F)cc2)c(-c2ccncc2)n1CCCc1ccccc1 [RWJ-67657]
[1]; Well no.=2987
  remaining activity at 3.75 µM: 91.7%
[2]; Well no.=2987
  remaining activity at 1.25 µM: 94.7%

## COCC1(CO)C(=O)C2CCN1CC2 (centres unmarked) [PRIMA-1Met]
[1]; Well no.=6212
  remaining activity at 3.75 µM: 99.5%
[2]; Well no.=6212
  remaining activity at 1.25 µM: 101%

## N/C(=N\C(=O)c1nc(Cl)c(N)nc1N)NCc1ccccc1 [Benzamil hydrochloride]
[1]; Well no.=267
  remaining activity at 3.75 µM: 92.2%
[2]; Well no.=267
  remaining activity at 1.25 µM: 95.3%

## N=C(NCCC[C@H](N)C(=O)O)N[N+](=O)[O-] [NG-Nitro-L-arginine]
[1]; Well no.=857
  remaining activity at 3.75 µM: 101%
[2]; Well no.=857
  remaining activity at 1.25 µM: 99.8%

## C[C@@H]1CN(c2c(F)c(N)c3c(=O)c(C(=O)O)cn(C4CC4)c3c2F)C[C@H](C)N1 [Sparfloxacin]
[1]; Well no.=2251
  remaining activity at 3.75 µM: 97.4%
[2]; Well no.=2251
  remaining activity at 1.25 µM: 95.3%

## O=C1NCC2(CCN(CCc3ccccc3)CC2)O1 [Fenspiride hydrochloride]
[1]; Well no.=469
  remaining activity at 3.75 µM: 103%
[2]; Well no.=469
  remaining activity at 1.25 µM: 99.1%

## CC/C(=C(\c1ccccc1)c1ccc(OCCN(C)C)cc1)c1ccccc1 [Tamoxifen citrate]
[1]; Well no.=1184
  remaining activity at 3.75 µM: 99.3%
[2]; Well no.=1184
  remaining activity at 1.25 µM: 97.1%

## COc1ccc(CC(=O)O)cc1 [2-(4-Methoxyphenyl)acetic acid]
[1]; Well no.=6451
  remaining activity at 3.75 µM: 104%
[2]; Well no.=6451
  remaining activity at 1.25 µM: 100%

## N#C/C(=C\c1ccc(O)c(O)c1)C(N)=S [Tyrphostin 47]
[1]; Well no.=1276
  remaining activity at 3.75 µM: 99.6%
[2]; Well no.=1276
  remaining activity at 1.25 µM: 97.8%

## Cc1cccc(C)c1NC(=O)C1CCCCN1C (centres unmarked) [Mepivacaine HCl]
[1]; Well no.=4981
  remaining activity at 3.75 µM: 101%
[2]; Well no.=4981
  remaining activity at 1.25 µM: 99.3%

## Cc1c(OCC(F)(F)F)ccnc1C[S+]([O-])c1nc2ccccc2[nH]1 (centres unmarked) [Lansoprazole]
[1]; Well no.=1075
  remaining activity at 3.75 µM: 98.7%
[2]; Well no.=1075
  remaining activity at 1.25 µM: 98.5%

## OC[C@H]1O[C@@H](n2cnc3c(Nc4ccccc4)ncnc32)[C@H](O)[C@@H]1O [N6-Phenyladenosine]
[1]; Well no.=1501
  remaining activity at 3.75 µM: 100%
[2]; Well no.=1501
  remaining activity at 1.25 µM: 97.5%

## Cc1cc2c(C(C)C)c(O)c(O)c(C=O)c2c(O)c1-c1c(C)cc2c(C(C)C)c(O)c(O)c(C=O)c2c1O [Gossypol]
[1]; Well no.=3325
  remaining activity at 3.75 µM: 99.3%
[1]; Well no.=3953
  remaining activity at 3.75 µM: 98.4%
[2]; Well no.=3325
  remaining activity at 1.25 µM: 98.8%
[2]; Well no.=3953
  remaining activity at 1.25 µM: 102%

## O=C1C=C2C(=CCOC2O)O1 (centres unmarked) [Patulin]
[1]; Well no.=3543
  remaining activity at 3.75 µM: 103%
[2]; Well no.=3543
  remaining activity at 1.25 µM: 105%

## CCN(CC)CCOC(=O)c1cc(Cl)c(N)cc1OC [SDZ-205,557 hydrochloride]
[1]; Well no.=1327
  remaining activity at 3.75 µM: 100%
[2]; Well no.=1327
  remaining activity at 1.25 µM: 101%

## CC1=C2C(=O)[C@H]3[C@@H](CC=C4C[C@@H](O)CC[C@@]43C)[C@@H]2CC[C@]12O[C@@H]1C[C@H](C)CN[C@H]1[C@H]2C [Jervine]
[1]; Well no.=3367
  remaining activity at 3.75 µM: 96.2%
[2]; Well no.=3367
  remaining activity at 1.25 µM: 92%

## COc1cc(Nc2ncc3ccn(-c4cccc(CCC#N)c4)c3n2)cc(OC)c1OC [Casein Kinase II Inhibitor IV]
[1]; Well no.=2381
  remaining activity at 3.75 µM: 105%
[2]; Well no.=2381
  remaining activity at 1.25 µM: 104%

## CCOC(=O)N1CCC(NCCNC(=O)c2ccccc2C)CC1 [VU0357017 (hydrochloride)]
[1]; Well no.=6995
  remaining activity at 3.75 µM: 95.5%
[2]; Well no.=6995
  remaining activity at 1.25 µM: 97.4%

## c1ccc(CN(Cc2ncc[nH]2)c2ccccc2)cc1 [Antozoline hydrochloride]
[1]; Well no.=108
  remaining activity at 3.75 µM: 103%
[2]; Well no.=108
  remaining activity at 1.25 µM: 101%

## C[C@H](Nc1ncnc2nc[nH]c12)c1cc2cccc(Cl)c2c(=O)n1-c1ccccc1 [IPI-145 (INK1197)]
[1]; Well no.=5170
  remaining activity at 3.75 µM: 99.5%
[2]; Well no.=5170
  remaining activity at 1.25 µM: 102%

## CC1(NC2=NS(=O)(=O)c3sc(Cl)cc3N2)CC1 [NN414]
[1]; Well no.=5436
  remaining activity at 3.75 µM: 104%
[2]; Well no.=5436
  remaining activity at 1.25 µM: 103%

Reference: paper PMC8286840, “Identifying SARS-CoV-2 antiviral compounds by screening for small molecule inhibitors of Nsp3 papain-like protease” (Biochemical Journal, 2021)
